Source: US8283342B2, “Napadisylate salt of 5-(2-{[6-(2,2-difluoro-2-phenylethoxy) hexyl]amino}-1-hydroxyethyl)-8-hydroxyquinolin-2(1H)-one as agonist of the β2 adrenergic receptor” (Almirall S.A., priority 2007, dated 2012)

Legend:
[1] = Differential scanning calorimetry (DSC) analysis; format: physicochemical; settings: equilibrated at 30° C., heated at 10° C./min to 300° C.
Description: The differential scanning calorimetry (DSC) analysis was obtained using a DSC-821 Mettler-Toledo, serial number 5117423874. Samples were weighed into an aluminium pan, an aluminium lid placed on top of the sample and compressed with a brass rod. Samples were equilibrated at 30° C. and heated at 10° C./min to 300° C. The instrument was calibrated using indium and zinc standards.

[2] = Thermogravimetric (TGA) analysis; format: physicochemical
Description: The thermogravimetric (TGA) analysis was obtained using a TGA-SDTA-851 Mettler-Toledo, serial number 5118408555. Samples were placed into a tared aluminium pan and then positioned on a platinum crucible. Samples were heated from 30° C. at 10° C./min to 350° C. The instrument was calibrated using indium and aluminium standards.

stability (no changes prior to the melting point range; no conversion into other polymorphs, no decomposition) [1]: high stability
weight loss due to the decomposition of the sample ([2]; from approximately 200° C. to 220° C., heated from 30° C. at 10° C./min to 350° C.): 3.1 % w/w
hygroscopicity (no solvent/water release) ([2]; prior to 200° C., in particular at 80-100° C., no change): lack of hygroscopicity
SMILES: O=S(=O)(O)c1cccc2c(S(=O)(=O)O)cccc12.O=c1ccc2c([C@@H](O)CNCCCCCCOCC(F)(F)c3ccccc3)ccc(O)c2[nH]1.O=c1ccc2c([C@@H](O)CNCCCCCCOCC(F)(F)c3ccccc3)ccc(O)c2[nH]1 [5-(-2-(6-(2,2-Difluoro-2-phenylethoxy)hexylamino)-1(R)-hydroxyethyl)-8-hydroxyquinolin-2(1H)-one heminapadisylate]
